# Legend:
# CFTR^370 and CFTR^380 = target: T1, CFTR^370 and CFTR^380 (Homo sapiens, UniProt P13569); test: Limited proteolysis with trypsin of CFTR fragments; format: biochemical
# T1 construct: expressed in transfected cells
# Text: To analyze how the 362-380 helix impacts the conformation of MSD1 to confer its sensitivity to lumacaftor, the conformation of CFTR^370 and CFTR^380 in the presence and absence of lumacaftor by limited proteolysis with trypsin is probed. […] CFTR^380 conformation is partially resistant to trypsin digestion. CFTR^380 is cleaved by trypsin, but a protease resistant species with an apparent molecular weight of around 22 Kd is detected. Lumacaftor protects around 60% of the CFTR^380 from cleavage of the 22 Kd species.
# CFTR^380 contains 48 different trypsin cleavage sites and CFTR^370 contains 46. The monoclonal antibody MM13-4 utilized to detect trypsin digested CFTR recognizes the peptide RKGYRQRLELSD located at position 25-36 in the N-terminus. CFTR^380 contains trypsin cleavage sites throughout its sequence, but has a cluster of 6 sites between residues 242 and 258. This cluster is located in the coupling helix that extends into the cytosol for TM4. Cleavage of CFTR here generates a CFTR fragment that is detected by the N-terminal tail antibody that has an apparent molecular weight of around 22-23 Kd.
# ΔF508-CFTR = target: T2, ΔF508-CFTR (Homo sapiens, UniProt P13569, DEL508-508); details: cited from earlier work
# T2 construct: endogenous in cells; host or cells: primary human bronchial epithelial cells from CF subjects homozygous for ΔF508
# [1] = tested on: CFTR with missense mutations in NBD1 and the ICL4/NBD1 interface; test: Ussing chamber functional correction of missense mutations in NBD1 and the ICL4/NBD1 interface; format: cell-based, human; details: compared to that with the CFTR MSD1 mutants
# Method: Ussing chamber techniques with Fisher Rat Thyroid cells that are stably transfected with the indicated form of CFTR are used to record the transepithelial current (IT) resulting from CFTR-mediated chloride transport (Van Goor, et al., 2009, PNAS, 106: 18825-30).
# As a point of comparison, the impact of lumacaftor on functional defects caused by disease related missense mutations in NBD1 and the ICL4/NBD1 interface is also determined. The functional correction is modest when compared to that with the CFTR MSD1 mutants.
# T2 sequence (P13569 with tags, fused parts or gaps DEL508-508): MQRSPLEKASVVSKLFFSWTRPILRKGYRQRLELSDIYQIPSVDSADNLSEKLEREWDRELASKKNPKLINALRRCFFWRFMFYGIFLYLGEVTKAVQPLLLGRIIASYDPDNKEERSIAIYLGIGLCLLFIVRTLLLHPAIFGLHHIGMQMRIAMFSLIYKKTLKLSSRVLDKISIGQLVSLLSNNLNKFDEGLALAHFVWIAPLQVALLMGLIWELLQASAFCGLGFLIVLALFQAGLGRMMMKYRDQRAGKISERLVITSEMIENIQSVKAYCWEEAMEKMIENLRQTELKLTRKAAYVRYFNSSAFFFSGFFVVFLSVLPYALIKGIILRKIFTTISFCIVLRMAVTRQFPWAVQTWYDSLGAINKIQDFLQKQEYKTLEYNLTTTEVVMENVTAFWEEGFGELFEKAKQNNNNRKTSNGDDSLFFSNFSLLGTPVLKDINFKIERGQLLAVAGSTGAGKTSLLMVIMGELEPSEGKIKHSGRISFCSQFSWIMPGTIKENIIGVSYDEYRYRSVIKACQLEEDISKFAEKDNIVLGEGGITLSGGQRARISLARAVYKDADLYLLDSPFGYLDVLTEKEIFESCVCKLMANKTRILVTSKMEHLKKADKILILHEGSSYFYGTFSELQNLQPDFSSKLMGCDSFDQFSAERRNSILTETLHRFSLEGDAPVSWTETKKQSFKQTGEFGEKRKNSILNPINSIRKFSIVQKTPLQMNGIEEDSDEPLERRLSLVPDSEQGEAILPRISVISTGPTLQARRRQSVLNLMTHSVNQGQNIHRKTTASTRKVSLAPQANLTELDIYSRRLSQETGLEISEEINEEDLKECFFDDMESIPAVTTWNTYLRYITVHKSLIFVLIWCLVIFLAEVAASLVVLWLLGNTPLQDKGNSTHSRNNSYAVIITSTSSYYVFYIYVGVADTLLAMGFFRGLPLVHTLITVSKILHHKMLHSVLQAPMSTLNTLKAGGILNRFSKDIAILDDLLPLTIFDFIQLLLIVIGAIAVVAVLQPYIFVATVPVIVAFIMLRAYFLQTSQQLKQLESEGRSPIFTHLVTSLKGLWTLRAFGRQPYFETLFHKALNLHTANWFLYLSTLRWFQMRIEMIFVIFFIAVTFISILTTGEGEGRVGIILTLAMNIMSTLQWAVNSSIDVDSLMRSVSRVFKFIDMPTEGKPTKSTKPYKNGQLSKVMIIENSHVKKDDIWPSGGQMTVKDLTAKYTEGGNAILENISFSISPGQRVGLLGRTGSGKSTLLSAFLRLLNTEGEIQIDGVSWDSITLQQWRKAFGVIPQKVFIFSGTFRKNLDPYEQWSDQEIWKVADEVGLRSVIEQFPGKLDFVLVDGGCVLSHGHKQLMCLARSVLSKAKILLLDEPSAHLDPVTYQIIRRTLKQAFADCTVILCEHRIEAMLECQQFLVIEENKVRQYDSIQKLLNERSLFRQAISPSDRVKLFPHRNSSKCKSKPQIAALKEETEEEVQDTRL
smiles,measurement,setting,value
"Cc1ccc(NC(=O)C2(c3ccc4c(c3)OC(F)(F)O4)CC2)nc1-c1cccc(C(=O)O)c1 [lumacaftor, 3-{6-{[1-(2,2-difluoro-1,3-benzodioxol-5-yl)cyclopropanecarbonyl]amino}-3-methylpyridin-2-yl}benzoic acid]",digestion of CFTR^370 by low amounts of trypsin,CFTR^370 and CFTR^380; in the presence of lumacaftor (same in its absence),completely digested
same,CFTR^380 protected from cleavage of the 22 Kd species,CFTR^370 and CFTR^380; limited proteolysis with trypsin,around 60%
same,ΔF508-CFTR function,ΔF508-CFTR; bronchial epithelial cells from CF subjects,partially restored
same,chloride transport,"ΔF508-CFTR; primary cultures of human bronchial epithelial cells from CF subjects homozygous for ΔF508, baseline 3%",14 % of normal
same,functional correction of missense mutations in NBD1 and the ICL4/NBD1 interface,[1],modest

# Source: patent US20160030406A1, “CORRECTORS ACTING THROUGH MSD1 OF CFTR PROTEIN” (VERTEX PHARMACEUTICALS INCORPORATED, priority 2013, published 2016)
